From patent publication US11339130B1 (Blade Therapeutics, Inc., priority 2016, dated 2022) come the findings set out here.

The target of one assay is T1, Human Calpain 1/NS1 (Homo sapiens, UniProt P07384).
T1 sequence (P07384 1-714): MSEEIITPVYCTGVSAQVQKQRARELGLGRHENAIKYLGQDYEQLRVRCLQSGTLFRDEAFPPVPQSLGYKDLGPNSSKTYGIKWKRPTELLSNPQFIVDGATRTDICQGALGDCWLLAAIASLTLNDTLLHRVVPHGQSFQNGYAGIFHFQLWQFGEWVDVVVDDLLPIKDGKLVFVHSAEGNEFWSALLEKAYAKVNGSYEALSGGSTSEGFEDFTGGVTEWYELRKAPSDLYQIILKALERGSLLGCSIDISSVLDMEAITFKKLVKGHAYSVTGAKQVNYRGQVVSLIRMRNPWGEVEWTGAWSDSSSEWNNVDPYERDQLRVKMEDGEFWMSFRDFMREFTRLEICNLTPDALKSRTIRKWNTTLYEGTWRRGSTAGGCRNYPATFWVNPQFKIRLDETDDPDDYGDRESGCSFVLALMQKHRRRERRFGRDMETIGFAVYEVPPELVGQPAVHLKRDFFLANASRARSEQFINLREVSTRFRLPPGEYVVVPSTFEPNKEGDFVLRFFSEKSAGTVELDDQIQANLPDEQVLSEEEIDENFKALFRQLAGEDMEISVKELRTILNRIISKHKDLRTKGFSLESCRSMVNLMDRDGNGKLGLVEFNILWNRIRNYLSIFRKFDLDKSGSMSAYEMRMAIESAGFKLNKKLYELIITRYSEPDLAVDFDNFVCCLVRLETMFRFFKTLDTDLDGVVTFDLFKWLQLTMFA
T1 sequence (P04632 1-268 partner): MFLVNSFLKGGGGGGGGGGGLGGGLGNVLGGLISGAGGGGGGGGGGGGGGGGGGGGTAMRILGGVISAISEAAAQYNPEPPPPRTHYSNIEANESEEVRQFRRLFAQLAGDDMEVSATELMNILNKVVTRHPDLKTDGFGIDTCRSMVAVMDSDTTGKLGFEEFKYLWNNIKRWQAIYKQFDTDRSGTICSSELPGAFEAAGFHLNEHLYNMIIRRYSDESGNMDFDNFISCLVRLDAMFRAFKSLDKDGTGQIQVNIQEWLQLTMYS
As to the kind of experiment: Calpain inhibition continuous fluorescence (FRET) assay, Human Calpain 1/NS1. The format is biochemical. Particulars: read-out: Human Calpain 1/NS1 IC50. The method in brief:
(§1)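 Calpain activity is measured kinetically with a quenched FRET peptide in 50 mM Tris pH 7.5, 100 mM NaCl, 1 mM DTT, with CaCl2 triggering activation. Rates over 1-5 min are plotted against log inhibitor to obtain IC50 by 4-parameter logistic fitting.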

The target in another assay is T2, Human Calpain 9/NS1 (Homo sapiens, UniProt O14815).
T2 sequence (O14815 1-690): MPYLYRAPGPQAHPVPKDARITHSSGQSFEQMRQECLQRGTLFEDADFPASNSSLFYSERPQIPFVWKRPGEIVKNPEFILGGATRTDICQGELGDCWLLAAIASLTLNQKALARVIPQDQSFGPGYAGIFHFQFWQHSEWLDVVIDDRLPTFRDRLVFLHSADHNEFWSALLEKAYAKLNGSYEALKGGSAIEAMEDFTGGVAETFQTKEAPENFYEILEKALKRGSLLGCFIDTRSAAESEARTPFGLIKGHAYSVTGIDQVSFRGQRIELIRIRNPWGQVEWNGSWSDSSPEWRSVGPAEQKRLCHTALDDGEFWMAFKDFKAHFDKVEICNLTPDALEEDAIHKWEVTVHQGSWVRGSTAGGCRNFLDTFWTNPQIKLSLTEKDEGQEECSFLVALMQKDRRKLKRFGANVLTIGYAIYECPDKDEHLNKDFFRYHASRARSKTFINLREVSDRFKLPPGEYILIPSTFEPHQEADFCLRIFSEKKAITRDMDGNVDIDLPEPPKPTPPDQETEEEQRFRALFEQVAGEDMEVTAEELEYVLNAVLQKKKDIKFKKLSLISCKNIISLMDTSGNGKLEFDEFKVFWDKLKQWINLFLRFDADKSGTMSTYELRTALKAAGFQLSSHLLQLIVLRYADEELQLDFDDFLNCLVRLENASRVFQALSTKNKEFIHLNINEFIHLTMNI
T2 sequence (P04632 1-268 partner): T1 sequence (P04632 1-268 partner)
Put plainly: Calpain inhibition continuous fluorescence (FRET) assay, Human Calpain 9/NS1. The format is biochemical. Particulars: read-out: Human Calpain 9/NS1 IC50. Put shortly:
as §1

Assay [1] relates to Calpain activity in SH-SY5Y cells. Put plainly: SH-SY5Y + AMC fluorescence assay (Suc-LLVY-AMC substrate). Format: cell-based. Particulars: read-out: SH-SY5Y + AMC IC50.
Assay [2] relates to Calpain activity in SH-SY5Y cells (SBDP-150). As to the kind of experiment: SH-SY5Y Spectrin western blot assay (SBDP-150 breakdown product, A23187-induced). Particulars: Homo sapiens; SH-SY5Y cells, A23187-induced SBDP-150, western blot; read-out: SH-SY5Y Spectrin IC50. The format is cell-based. (A western blot detects proteins with antibodies after separation by electrophoresis.)

The target in a further assay is T3, Human Calpain 2/NS1 (Homo sapiens, UniProt P17655).
T3 sequence (P17655 1-700): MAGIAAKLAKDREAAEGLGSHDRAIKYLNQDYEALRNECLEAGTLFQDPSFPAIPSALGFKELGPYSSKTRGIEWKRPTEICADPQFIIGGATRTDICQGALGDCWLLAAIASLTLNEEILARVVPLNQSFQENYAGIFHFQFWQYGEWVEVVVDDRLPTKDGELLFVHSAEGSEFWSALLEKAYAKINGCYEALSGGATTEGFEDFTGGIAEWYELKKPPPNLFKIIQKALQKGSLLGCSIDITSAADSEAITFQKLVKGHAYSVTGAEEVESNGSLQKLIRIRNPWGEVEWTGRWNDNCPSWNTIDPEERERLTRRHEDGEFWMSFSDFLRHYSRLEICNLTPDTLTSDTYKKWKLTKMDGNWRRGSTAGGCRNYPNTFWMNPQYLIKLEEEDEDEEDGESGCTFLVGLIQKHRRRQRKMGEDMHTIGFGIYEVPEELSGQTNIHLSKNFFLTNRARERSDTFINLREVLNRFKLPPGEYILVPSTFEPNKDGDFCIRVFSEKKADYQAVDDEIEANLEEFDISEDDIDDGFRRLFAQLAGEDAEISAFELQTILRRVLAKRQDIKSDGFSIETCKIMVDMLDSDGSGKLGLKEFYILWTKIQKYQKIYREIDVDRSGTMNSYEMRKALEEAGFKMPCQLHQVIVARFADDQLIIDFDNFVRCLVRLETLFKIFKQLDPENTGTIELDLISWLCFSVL
T3 sequence (P04632 1-268 partner): T1 sequence (P04632 1-268 partner)
As to the kind of experiment: Calpain inhibition continuous fluorescence (FRET) assay, Human Calpain 2/NS1. The format is biochemical. Particulars: read-out: Human Calpain 2/NS1 IC50. Put shortly:
as §1

Counter-ions that a name gives are not always drawn.

With `Cc1occ(C(=O)N[C@@H](Cc2ccccc2)C(=O)C(N)=O)c1-c1ccccc1` [Compound 430, (S)—N-(4-amino-3,4-dioxo-1-phenylbutan-2-yl)-5-methyl-4-phenylfuran-3-carboxamide], the IC50 at Human Calpain 1/NS1 is less than 3 µM; on Human Calpain 9/NS1 it was less than 3 µM; in assay [1], less than 10 µM; in assay [2], less than 10 µM; at Human Calpain 2/NS1, less than 3 µM.

As to `Cc1cc(C(=O)NC(Cc2ccccc2)C(=O)C(N)=O)n(-c2ccnc(C(C)C)n2)n1` (stereo not drawn) [Compound 431, N-(4-amino-3,4-dioxo-1-phenylbutan-2-yl)-1-(2-isopropylpyrimidin-4-yl)-3-methyl-1H-pyrazole-5-carboxamide], the IC50 on Human Calpain 1/NS1 is less than 3 µM; at Human Calpain 9/NS1, less than 3 µM; in assay [1], less than 10 µM; in assay [2], more than 25 µM; on Human Calpain 2/NS1, less than 3 µM.

On to `C#Cc1nccc(-n2nc(C)cc2C(=O)NC(Cc2ccccc2)C(=O)C(N)=O)n1` (stereo not drawn) [Compound 432, N-(4-amino-3,4-dioxo-1-phenylbutan-2-yl)-1-(2-ethynylpyrimidin-4-yl)-3-methyl-1H-pyrazole-5-carboxamide], for which the IC50 was less than 3 µM at Human Calpain 1/NS1; less than 3 µM on Human Calpain 9/NS1; less than 10 µM in assay [1]; less than 10 µM in assay [2]; less than 3 µM on Human Calpain 2/NS1.

For the molecule `C#Cc1nccc(-n2nc(C)cc2C(=O)N[C@@H](Cc2ccccc2)C(=O)CF)n1` [Compound 433, (S)-1-(2-ethynylpyrimidin-4-yl)-N-(4-fluoro-3-oxo-1-phenylbutan-2-yl)-3-methyl-1H-pyrazole-5-carboxamide], the IC50 on Human Calpain 1/NS1 is 3 to 10 µM; on Human Calpain 9/NS1, more than 10 µM; in assay [1], more than 25 µM; in assay [2], 10 to 25 µM; at Human Calpain 2/NS1, 3 to 10 µM.

Turning to `Cc1cc(C(=O)N[C@@H](Cc2ccccc2)C(=O)C(N)=O)nn1-c1ccnc(Cl)n1` [Compound 435, (S)—N-(4-amino-3,4-dioxo-1-phenylbutan-2-yl)-1-(2-chloropyrimidin-4-yl)-5-methyl-1H-pyrazole-3-carboxamide], the IC50 on Human Calpain 1/NS1 is more than 10 µM; on Human Calpain 9/NS1 it was 3 to 10 µM; in assay [1], less than 10 µM; in assay [2], more than 25 µM; at Human Calpain 2/NS1, 3 to 10 µM.

For the molecule `COc1nccc(-n2nc(C)cc2C(=O)NC(Cc2ccccc2)C(=O)C(N)=O)n1` (stereo not drawn) [Compound 436, N-(4-amino-3,4-dioxo-1-phenylbutan-2-yl)-1-(2-methoxypyrimidin-4-yl)-3-methyl-1H-pyrazole-5-carboxamide], the IC50 is less than 3 µM on Human Calpain 1/NS1; less than 3 µM at Human Calpain 9/NS1; less than 10 µM in assay [1]; more than 25 µM in assay [2]; less than 3 µM at Human Calpain 2/NS1.

On to `Cc1cc(C(=O)NC(Cc2ccccc2)C(=O)C(N)=O)n(-c2ccnc(C#N)n2)n1` (stereo not drawn) [Compound 437, N-(4-amino-3,4-dioxo-1-phenylbutan-2-yl)-1-(2-cyanopyrimidin-4-yl)-3-methyl-1H-pyrazole-5-carboxamide], for which the IC50 on Human Calpain 1/NS1 was less than 3 µM; on Human Calpain 9/NS1, less than 3 µM; in assay [1] it was 10 to 25 µM; in assay [2], more than 25 µM; on Human Calpain 2/NS1, less than 3 µM.

`Cc1cc(C(=O)NC(Cc2ccccc2)C(=O)C(N)=O)n(-c2cccc(COCc3ccccc3)c2)n1` (stereo not drawn) [Compound 438, N-(4-amino-3,4-dioxo-1-phenylbutan-2-yl)-1-(3-((benzyloxy)methyl)phenyl)-3-methyl-1H-pyrazole-5-carboxamide]: the IC50 at Human Calpain 1/NS1 was less than 3 µM; at Human Calpain 9/NS1 it was less than 3 µM; in assay [1], 10 to 25 µM; in assay [2], 10 to 25 µM; on Human Calpain 2/NS1, less than 3 µM.

As for `Cc1cc(C(=O)NC(Cc2ccccc2)C(=O)C(N)=O)n(-c2ccc(Oc3ccccc3)cc2)n1` (stereo not drawn) [Compound 439, N-(4-Amino-3,4-dioxo-1-phenylbutan-2-yl)-3-methyl-1-(4-phenoxyphenyl)-1H-pyrazole-5-carboxamide], the IC50 was less than 3 µM on Human Calpain 1/NS1; less than 3 µM at Human Calpain 9/NS1; more than 25 µM in assay [1]; less than 10 µM in assay [2]; less than 3 µM on Human Calpain 2/NS1.

In the case of `Cc1cc(C(=O)NC(Cc2ccccc2)C(=O)C(N)=O)n(-c2ccc(OC3CCOCC3)cc2)n1` (stereo not drawn) [Compound 440, N-(4-amino-3,4-dioxo-1-phenylbutan-2-yl)-3-methyl-1-(4-((tetrahydro-2H-pyran-4-yl)oxy)phenyl)-1H-pyrazole-5-carboxamide], the IC50 on Human Calpain 1/NS1 was less than 3 µM; on Human Calpain 9/NS1, less than 3 µM; in assay [1], more than 25 µM; in assay [2], less than 10 µM; at Human Calpain 2/NS1 it was less than 3 µM.

For `CCN(CC)Cc1ccc(Oc2ccc(-n3nc(C)cc3C(=O)NC(Cc3ccccc3)C(=O)C(N)=O)cc2)cc1` (stereo not drawn) [Compound 441, N-(4-amino-3,4-dioxo-1-phenylbutan-2-yl)-1-(4-(4-((diethylamino)methyl)phenoxy)phenyl)-3-methyl-1H-pyrazole-5-carboxamide hydrochloride], the IC50 on Human Calpain 1/NS1 is more than 10 µM; on Human Calpain 9/NS1 it was more than 10 µM; in assay [1] it was more than 25 µM; in assay [2] it was more than 25 µM; on Human Calpain 2/NS1, more than 10 µM.

On to `Cc1cc(C(=O)NC(Cc2ccccc2)C(=O)C(N)=O)n(-c2ccc(CN3CCOCC3)cc2)n1` (stereo not drawn) [Compound 442, N-(4-amino-3,4-dioxo-1-phenylbutan-2-yl)-3-methyl-1-(4-(morpholinomethyl)phenyl)-1H-pyrazole-5-carboxamide], for which the IC50 at Human Calpain 1/NS1 was less than 3 µM; on Human Calpain 9/NS1, less than 3 µM; in assay [1], more than 25 µM; in assay [2], 10 to 25 µM; on Human Calpain 2/NS1, less than 3 µM.
